Laboratory results reported in patent US9790169B2, “IDO inhibitors” (BRISTOL-MYERS SQUIBB COMPANY, priority 2015, dated 2017).

Target: human IDO1 (Homo sapiens, UniProt P14902)
Assay: Assessment of human IDO-1 inhibitory activity in HEK cells (human IDO1/HEK293 cells, kynurenine read-out with Ehrlich reagent, absorbance 490 nm)
Assay type: cell-based
Set-up: expressed in transfected cells
Settings: HEK Human IDO-1 cellular assay
In short: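 HEK293 cells stably expressing human IDO1 were seeded at 10,000 per well in phenol red-free RPMI with 10% FBS, treated with compound for 20 h at 37 °C. Kynurenine was measured after TCA (0.2% final) and 30 min at 50 °C, using Ehrlich reagent, A490. IC50 normalised to DMSO (0%) and 500 nM reference standard (100%).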

Sequence of human IDO1 (P14902 whole entry): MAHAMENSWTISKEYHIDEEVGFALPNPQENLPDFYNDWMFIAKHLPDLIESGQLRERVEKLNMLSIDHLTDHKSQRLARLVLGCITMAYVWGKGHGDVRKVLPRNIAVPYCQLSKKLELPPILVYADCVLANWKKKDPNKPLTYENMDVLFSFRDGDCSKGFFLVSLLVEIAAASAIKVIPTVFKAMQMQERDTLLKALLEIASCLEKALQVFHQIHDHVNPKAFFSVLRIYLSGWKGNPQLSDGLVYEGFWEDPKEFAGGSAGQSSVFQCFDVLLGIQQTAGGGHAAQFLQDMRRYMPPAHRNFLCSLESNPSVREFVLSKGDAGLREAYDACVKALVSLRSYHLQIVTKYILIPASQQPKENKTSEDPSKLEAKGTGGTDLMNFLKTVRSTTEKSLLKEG

| IC50 | Structure (SMILES) |
| --- | --- |
| < 0.005 µM | CCN(c1ccc(C(CC(=O)O)c2ccccc2)cc1Nc1ccc(C#N)cc1)C1CCOCC1 (single isomer, unassigned) [Example 581, 3-(3-((4-cyanophenyl)amino)-4-(ethyl(tetrahydro-2H-pyran-4-yl)amino)phenyl)-3-phenylpropanoic acid] |
| < 0.005 µM | CC[C@@H](CC(=O)O)c1ccc(N(CC)C2CCOCC2)c(Nc2ccc(OC)nc2)c1 (single isomer, unassigned) [Example 478] |
| > 0.05 µM | CC(CC(=O)O)c1ccc(N2CCC[C@H]2C(C)(C)O)c(Nc2ccc(Cl)cc2)c1 (single isomer, unassigned) [Example 799] |
| > 0.05 µM | CCOc1ccc(NC(=O)Nc2cc(C(CC)CC(=O)O)ccc2N2CCC[C@H]2C(C)(C)O)cc1 (single isomer, unassigned) [Example 826] |
| > 0.05 µM | CCN(c1ccc([C@@H](COC)CC(=O)O)cc1NC(=O)Nc1cc(C)no1)C1CCOCC1 (single isomer, unassigned) [Example 429] |
| < 0.05 µM | CCOc1ccc(NC(=O)Nc2cc([C@H](CC)CC(=O)O)ccc2N(CC)C2CCOCC2)cc1 (single isomer, unassigned) [Example 528] |
| < 0.005 µM | CCC(CC(=O)O)c1cc(NC(=O)Nc2cc(C)no2)c(N(CC(C)C)C2CCCCC2)cc1F (racemic) [Example 1113, (±)-3-(4-(Cyclohexyl(isobutyl)amino)-2-fluoro-5-(3-(3-methylisoxazol-5-yl)ureido)phenyl)pentanoic acid] |
| < 0.005 µM | CCC(CC(=O)O)c1ccc(N(CC(C)C)CC(C)C)c(NC(=O)Cc2ccc(C)cc2)c1 (racemic) [Example 949, (+/−)-3-(4-(Diisobutylamino)-3-(2-(p-tolyl)acetamido)phenyl)pentanoic acid] |
| < 0.005 µM | CCC(CC(=O)O)c1ccc(N2CCOC[C@H]2C(C)C)c(Nc2ccc(Cl)cc2)c1 (single isomer, unassigned) [Example 900] |
| < 0.05 µM | CCN(c1ccc([C@H](COC)CC(=O)O)cc1NC(=O)Nc1ccc(Cl)cc1F)C1CCOCC1 (single isomer, unassigned) [Example 434] |
| < 0.05 µM | CCC(CC(=O)O)c1cc(F)c(N(CC(C)C)CC(C)C)c(Nc2ccc(OCC3CC3)cc2)c1 (single isomer, unassigned) [Example 106, 3-(3-((4-(cyclopropylmethoxy)phenyl)amino)-4-(diisobutylamino)-5-fluorophenyl)pentanoic acid] |
| < 0.05 µM | CCC(CC(=O)O)c1ccc(N2C[C@@H]3C[C@H]2CN3C(=O)OC(C)(C)C)c(Nc2ccccc2)c1 (single isomer, unassigned) [Example 446] |
| > 0.05 µM | CC(C)CN(c1ccc(C(CC(=O)O)C2CC2)cc1NC(=O)Nc1cncnc1)C1CCOCC1 (racemic) [Example 1206, (+/−)-3-Cyclopropyl-3-(4-(isobutyl(tetrahydro-2H-pyran-4-yl)amino)-3-(3-(pyrimidin-5-yl)ureido)phenyl)propanoic acid] |
| < 0.005 µM | CCN(c1ccc(C(C)CC(=O)O)cc1Nc1ccc(C#N)cc1)C1CCOCC1 (single isomer, unassigned) [Example 613, 3-(3-((4-cyanophenyl)amino)-4-(ethyl(tetrahydro-2H-pyran-4-yl)amino)phenyl) butanoic acid] |
| < 0.05 µM | CCOc1ccc(CC(=O)Nc2cc(C(COC)CC(=O)O)cc(F)c2N(CC(C)C)C2CCCCC2)cc1 (single isomer, unassigned) [Example 1168, 3-(4-(cyclohexyl(isobutyl)amino)-3-(2-(4-ethoxyphenyl)acetamido)-5-fluorophenyl)-4-methoxybutanoic acid] |
| < 0.05 µM | COCC(CC(=O)O)c1ccc(N(CC(C)C)CC(C)C)c(NC(=O)Nc2cc(C)on2)c1 (racemic) [Example 998, (+/−)-3-(4-(Diisobutylamino)-3-(3-(5-methylisoxazol-3-yl)ureido)phenyl)-4-methoxybutanoic acid] |
| < 0.05 µM | CCC(CC(=O)O)c1ccc(N(CC(C)C)C2CCCCC2)c(Nc2ccc(Cl)cc2F)c1 (single isomer, unassigned) [Example 307, 3-(3-((4-chloro-2-fluorophenyl)amino)-4-(cyclohexyl(isobutyl)amino)phenyl)pentanoic acid] |
| > 0.05 µM | CC[C@@H](CC(=O)O)c1ccc(N(CC)C2CCOCC2)c(Nc2ccc3nncn3c2)c1 (single isomer, unassigned) [Example 471] |
| < 0.005 µM | CC[C@H](CC(=O)O)c1ccc(N(CC(C)(C)O)C2CCCCC2)c(Nc2ccc(OC(F)F)cc2)c1 (single isomer, unassigned) [Example 237] |
| < 0.005 µM | CCC(CC(=O)O)c1ccc(N(CC)C2CCCOC2)c(NC(=O)Nc2ccc(C)cc2)c1 (single isomer, unassigned) [Example 73 D2, 3-(4-(Ethyl(tetrahydro-2H-pyran-3-yl)amino)-3-(3-(p-tolyl)ureido)phenyl)pentanoic acid] |

| IC50 | Structure (SMILES) |
| --- | --- |
| > 0.05 µM | CCc1cnc(Nc2cc([C@H](CC)CC(=O)O)ccc2N(CC)C2CCCCC2)nc1 (single isomer, unassigned) [Example 286] |
| < 0.005 µM | CC[C@H](CC(=O)O)c1ccc(N(CC)C2CCOCC2)c(Nc2ccc(OC)nc2)c1 (single isomer, unassigned) [Example 518] |
| < 0.05 µM | CCOc1ncc(Nc2cc(C(CC(=O)O)c3ccccc3)ccc2N(CC)C2CCOCC2)cn1 (single isomer, unassigned) [Example 578, 3-(3-((2-Ethoxypyrimidin-5-yl)amino)-4-(ethyl(tetrahydro-2H-pyran-4-yl)amino)phenyl)-3-phenylpropanoic acid] |
| < 0.005 µM | Cc1ccc(NC(=O)Nc2cc(C(CC(=O)O)C3CC3)ccc2N(CC(C)C)C2CCOCC2)cc1 (single isomer, unassigned) [1202 E2] |
| < 0.05 µM | CC[C@H](CC(=O)O)c1ccc(N(CC(C)C)C2CCS(=O)(=O)CC2)c(Nc2ccc3sc(C)nc3c2)c1 [Example 214, 3-(4-((1,1-Dioxidotetrahydro-2H-thiopyran-4-yl)(isobutyl)amino)-3-((2-methylbenzo[d]thiazol-5-yl)amino)phenyl)pentanoic acid] |
| < 0.05 µM | CCN(c1ccc(C(CC(=O)O)c2ccccc2)cc1NC(=O)Nc1ccc(Cl)cc1F)C1CCOCC1 (single isomer, unassigned) [Example 585, 3-(3-(3-(4-chloro-2-fluorophenyl)ureido)-4-(ethyl (tetrahydro-2H-pyran-4-yl)amino)phenyl)-3-phenylpropanoic acid] |
| < 0.05 µM | Cc1ccc(CC(=O)Nc2cc(C(C)CC(=O)O)ccc2N(CC(C)C)C2CCOCC2)cc1 (single isomer, unassigned) [Example 966, 3-(4-(Isobutyl(tetrahydro-2H-pyran-4-yl)amino)-3-(2-(p-tolyl)acetamido)phenyl)butanoic acid] |
| < 0.005 µM | CCCN(CC1CC1)c1ccc(C(CC)CC(=O)O)cc1Nc1ccc2c(c1)OC(F)(F)O2 (single isomer, unassigned) [Example 662, 3-(4-((cyclopropylmethyl)(propyl)amino)-3-((2,2-difluorobenzo[d] [1,3]dioxol-5-yl)amino)phenyl) pentanoic acid] |
| < 0.005 µM | CCN(c1ccc([C@@H](COC)CC(=O)O)cc1Nc1ccc(F)cc1)C1CCOCC1 (single isomer, unassigned) [Example 375] |
| > 0.05 µM | CC[C@@H](CC(=O)O)c1ccc(N(CC(C)(C)O)C2CCOCC2)c(NC(=O)Nc2ccc(C)cc2)c1 (single isomer, unassigned) [Example 207] |
| > 0.05 µM | CCN(c1ccc(C(CC(=O)O)c2ccccc2)cc1NC(=O)Nc1ccc(C)cc1)C1CCOCC1 (single isomer, unassigned) [Example 584, 3-(4-(Ethyl(tetrahydro-2H-pyran-4-yl)amino)-3-(3-(p-tolyl)ureido)phenyl)-3-phenylpropanoic acid] |
| < 0.005 µM | COCC(CC(=O)O)c1ccc(N(CC(C)C)C2CCCCC2)c(NC(=O)Nc2ccc(C)cc2)c1 (single isomer, unassigned) [989-1] |
| > 0.05 µM | CC[C@@H](CC(=O)O)c1ccc(N(CC)C2CCOCC2)c(Nc2cn3ccnc3cn2)c1 (single isomer, unassigned) [Example 483] |
| < 0.005 µM | COCC(CC(=O)O)c1ccc(N(CC2CC2)C2CCOCC2)c(Nc2ccc(Cl)cc2)c1 (single isomer, unassigned) [Example 679, 3-(3-((4-Chlorophenyl)amino)-4-((cyclopropylmethyl)(tetrahydro-2H-pyran-4-yl)amino)phenyl)-4-methoxybutanoic acid] |
| < 0.005 µM | CCC(CC(=O)O)c1ccc(N(CC2CC2)C2CCOCC2)c(Nc2cnc(OC)nc2)c1 (single isomer, unassigned) [Example 703, 3-(4-((cyclopropylmethyl) (tetrahydro-2H-pyran-4-yl)amino)-3-((2-methoxypyrimidin-5-yl)amino)phenyl)pentanoic acid] |
| < 0.005 µM | CCc1ccc(Nc2cc([C@@H](CC)CC(=O)O)ccc2N(CC)C2CCCCC2)cc1 (single isomer, unassigned) [Example 282] |
| > 0.05 µM | CC[C@H](CC(=O)O)c1ccc(N2CCOC[C@@H]2C(C)C)c(NC(=O)Nc2cc(C)on2)c1 (single isomer, unassigned) [Example 88] |
| < 0.005 µM | CC[C@@H](CC(=O)O)c1ccc(N(CC(C)(C)O)C2CCOCC2)c(Nc2ccc3c(c2)OC(F)(F)O3)c1 (single isomer, unassigned) [Example 199] |
| < 0.005 µM | CCC(CC(=O)O)c1cc(NC(=O)Nc2cnc(OC)nc2)c(N(CC(C)C)CC(C)C)cc1F (single isomer, unassigned) [Example 1141, 3-(4-(Diisobutylamino)-2-fluoro-5-(3-(2-methoxypyrimidin-5-yl)ureido)phenyl)pentanoic acid] |
| < 0.05 µM | COC(Cc1ccc(N(CC(C)C)C2CCCCC2)c(NC(=O)Nc2ccc(Cl)cc2F)c1)C(=O)O (stereo not shown) [Example 1012, 3-(3-(3-(4-Chloro-2-fluorophenyl)ureido)-4-(cyclohexyl(isobutyl)amino)phenyl)-2-methoxypropanoic acid] |
